Laboratory results as given in publication PMC10570366, “Molecular mechanism of decision-making in glycosaminoglycan biosynthesis” (Nature Communications, 2023).

Key:
Format in all cases: biochemical
EXT1/EXT2 = target: T1, EXT1/EXT2 (Homo sapiens, UniProt Q16394+Q93063); experiment: HPLC and MS of glycopeptide product; details: acceptor GlcNAc-TetraP-BETA; Mn2+; pH 7.5
T1 construct: soluble lumenal regions, FLAG-EXT1/His-EXT2 heterodimer co-expressed in Expi293F
T1 sequence (Q16394 29-746 limits assumed): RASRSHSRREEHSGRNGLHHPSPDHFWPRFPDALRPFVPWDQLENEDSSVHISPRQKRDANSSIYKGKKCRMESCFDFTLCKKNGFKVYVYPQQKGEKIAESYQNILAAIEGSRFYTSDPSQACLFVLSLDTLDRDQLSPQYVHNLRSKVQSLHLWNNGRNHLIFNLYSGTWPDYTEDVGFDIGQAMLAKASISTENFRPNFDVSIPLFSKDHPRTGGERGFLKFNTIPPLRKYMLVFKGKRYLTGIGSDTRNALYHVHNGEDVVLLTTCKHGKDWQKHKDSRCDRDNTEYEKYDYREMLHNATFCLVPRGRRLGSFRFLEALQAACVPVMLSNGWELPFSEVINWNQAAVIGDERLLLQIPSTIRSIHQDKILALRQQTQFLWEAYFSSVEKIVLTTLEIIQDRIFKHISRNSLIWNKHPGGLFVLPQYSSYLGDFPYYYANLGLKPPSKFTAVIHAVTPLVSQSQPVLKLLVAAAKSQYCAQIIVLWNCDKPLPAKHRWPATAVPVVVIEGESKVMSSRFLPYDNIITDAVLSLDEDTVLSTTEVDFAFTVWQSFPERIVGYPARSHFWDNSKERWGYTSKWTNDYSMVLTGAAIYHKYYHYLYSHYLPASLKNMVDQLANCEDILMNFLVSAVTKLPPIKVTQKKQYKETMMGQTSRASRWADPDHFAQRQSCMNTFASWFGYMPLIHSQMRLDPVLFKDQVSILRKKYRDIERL
T1 sequence (Q93063 47-718 limits assumed): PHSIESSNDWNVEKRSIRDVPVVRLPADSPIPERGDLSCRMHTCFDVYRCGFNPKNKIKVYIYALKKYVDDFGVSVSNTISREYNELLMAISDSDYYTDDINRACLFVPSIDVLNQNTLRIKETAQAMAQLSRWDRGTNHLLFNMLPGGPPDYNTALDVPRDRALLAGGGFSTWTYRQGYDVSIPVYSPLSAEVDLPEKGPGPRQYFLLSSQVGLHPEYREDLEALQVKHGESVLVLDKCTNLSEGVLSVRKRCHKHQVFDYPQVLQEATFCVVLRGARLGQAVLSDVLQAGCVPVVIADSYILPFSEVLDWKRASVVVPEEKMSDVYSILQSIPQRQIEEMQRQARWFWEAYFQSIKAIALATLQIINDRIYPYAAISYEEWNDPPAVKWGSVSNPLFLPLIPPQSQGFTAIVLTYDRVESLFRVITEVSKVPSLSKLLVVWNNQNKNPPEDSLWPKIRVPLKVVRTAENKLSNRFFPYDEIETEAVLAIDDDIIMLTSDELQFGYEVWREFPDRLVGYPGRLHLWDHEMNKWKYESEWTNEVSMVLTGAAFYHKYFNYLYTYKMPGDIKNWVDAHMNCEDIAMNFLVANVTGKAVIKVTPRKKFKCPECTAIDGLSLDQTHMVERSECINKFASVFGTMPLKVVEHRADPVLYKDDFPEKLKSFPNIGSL

B3GAT3 = target: T2, B3GAT3 (Homo sapiens, UniProt O94766); experiment: one-pot enzymatic synthesis, HPLC and MS; details: acceptor Gal-Gal-Xyl-BKN; 25 mM Mn2+; pH 7.5; 30 °C
T2 sequence (O94766 29-335 limits assumed): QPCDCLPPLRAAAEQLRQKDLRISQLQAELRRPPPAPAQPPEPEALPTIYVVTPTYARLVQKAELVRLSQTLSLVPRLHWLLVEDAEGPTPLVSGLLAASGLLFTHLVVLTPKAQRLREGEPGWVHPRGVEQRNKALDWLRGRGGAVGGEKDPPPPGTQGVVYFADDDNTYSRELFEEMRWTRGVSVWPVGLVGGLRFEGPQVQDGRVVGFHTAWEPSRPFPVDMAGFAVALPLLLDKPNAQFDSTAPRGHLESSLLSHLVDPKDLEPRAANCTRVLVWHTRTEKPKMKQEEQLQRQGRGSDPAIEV

MBP-CSGALNACT1 = target: T3, MBP-CSGALNACT1 (Homo sapiens, UniProt Q8TDX6); experiment: UDP-Glo; details: acceptor TetraP-peptides; 5 mM Mn2+; pH 7.5
T3 sequence (Q8TDX6 36-532 limits assumed): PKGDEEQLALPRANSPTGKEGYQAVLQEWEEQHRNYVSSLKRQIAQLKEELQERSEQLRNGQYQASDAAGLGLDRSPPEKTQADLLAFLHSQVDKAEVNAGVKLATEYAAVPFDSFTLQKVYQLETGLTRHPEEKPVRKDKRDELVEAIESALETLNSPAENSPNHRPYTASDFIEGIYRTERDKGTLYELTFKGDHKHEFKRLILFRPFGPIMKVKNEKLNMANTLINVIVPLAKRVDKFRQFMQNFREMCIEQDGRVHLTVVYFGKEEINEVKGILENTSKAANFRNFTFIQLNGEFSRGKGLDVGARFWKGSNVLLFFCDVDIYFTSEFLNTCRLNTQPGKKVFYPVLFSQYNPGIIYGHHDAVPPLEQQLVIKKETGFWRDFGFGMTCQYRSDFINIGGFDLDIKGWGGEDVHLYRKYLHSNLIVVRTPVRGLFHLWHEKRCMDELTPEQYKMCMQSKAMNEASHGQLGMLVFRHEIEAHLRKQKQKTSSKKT

CHSY3/CHPF = target: T4, CHSY3/CHPF (Homo sapiens, UniProt Q70JA7); experiment: HPLC and MS of glycopeptide product; details: acceptor TetraP-BETA; 5 mM Mn2+; pH 7.5; 30 °C
T4 construct: soluble lumenal regions, His6 tags, obligate heterodimer co-expressed in Expi293F
T4 sequence (Q70JA7 29-882 limits assumed): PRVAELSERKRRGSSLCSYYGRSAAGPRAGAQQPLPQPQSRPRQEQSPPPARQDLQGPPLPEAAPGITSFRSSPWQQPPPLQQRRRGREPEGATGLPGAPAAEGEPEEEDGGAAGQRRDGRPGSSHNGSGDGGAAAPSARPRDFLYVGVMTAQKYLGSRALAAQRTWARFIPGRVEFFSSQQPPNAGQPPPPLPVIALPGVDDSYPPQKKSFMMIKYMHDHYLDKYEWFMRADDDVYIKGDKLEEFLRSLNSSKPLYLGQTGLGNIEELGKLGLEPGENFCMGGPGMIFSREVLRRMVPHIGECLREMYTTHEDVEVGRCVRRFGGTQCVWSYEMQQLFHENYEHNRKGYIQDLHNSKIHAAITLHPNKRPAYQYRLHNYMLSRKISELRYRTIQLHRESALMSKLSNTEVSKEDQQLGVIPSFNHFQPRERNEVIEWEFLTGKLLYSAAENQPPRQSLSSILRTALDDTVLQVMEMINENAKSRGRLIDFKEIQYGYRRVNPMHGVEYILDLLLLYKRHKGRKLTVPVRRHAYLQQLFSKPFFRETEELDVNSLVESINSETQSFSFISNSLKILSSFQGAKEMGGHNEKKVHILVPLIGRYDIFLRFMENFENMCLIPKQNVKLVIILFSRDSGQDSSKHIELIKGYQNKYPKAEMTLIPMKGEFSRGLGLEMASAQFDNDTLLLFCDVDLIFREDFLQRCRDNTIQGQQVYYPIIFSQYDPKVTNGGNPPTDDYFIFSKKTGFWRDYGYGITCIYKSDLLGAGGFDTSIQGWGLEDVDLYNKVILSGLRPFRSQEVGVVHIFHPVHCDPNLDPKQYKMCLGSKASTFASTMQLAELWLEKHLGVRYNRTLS
T4 sequence (Q8IZ52 35-775 partner): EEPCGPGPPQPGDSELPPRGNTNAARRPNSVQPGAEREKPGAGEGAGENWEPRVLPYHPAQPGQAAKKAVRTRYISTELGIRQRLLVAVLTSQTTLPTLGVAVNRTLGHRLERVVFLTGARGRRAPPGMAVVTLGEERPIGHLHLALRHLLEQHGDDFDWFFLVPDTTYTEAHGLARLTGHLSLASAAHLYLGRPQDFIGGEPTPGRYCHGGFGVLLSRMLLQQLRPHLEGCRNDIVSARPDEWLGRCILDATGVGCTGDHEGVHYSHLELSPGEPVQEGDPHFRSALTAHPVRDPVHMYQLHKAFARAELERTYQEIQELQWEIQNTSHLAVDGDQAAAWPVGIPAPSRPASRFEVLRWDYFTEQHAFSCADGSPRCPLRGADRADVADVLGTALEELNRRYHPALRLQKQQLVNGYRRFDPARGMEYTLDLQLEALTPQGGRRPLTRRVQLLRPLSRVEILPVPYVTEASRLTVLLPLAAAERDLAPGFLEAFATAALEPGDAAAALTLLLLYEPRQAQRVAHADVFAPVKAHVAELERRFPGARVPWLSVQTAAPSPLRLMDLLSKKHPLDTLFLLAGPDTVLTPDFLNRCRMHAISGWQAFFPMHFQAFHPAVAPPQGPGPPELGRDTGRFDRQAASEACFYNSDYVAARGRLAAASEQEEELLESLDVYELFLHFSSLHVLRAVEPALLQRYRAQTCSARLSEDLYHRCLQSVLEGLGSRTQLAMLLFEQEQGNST

SMILES | HPLC and MS of glycopeptide product (EXT1/EXT2) | one-pot enzymatic synthesis, HPLC and MS (B3GAT3) | UDP-Glo (MBP-CSGALNACT1) | HPLC and MS of glycopeptide product (CHSY3/CHPF)
O=C(O)[C@H]1O[C@H](OP(=O)(O)OP(=O)(O)OC[C@H]2O[C@@H](n3ccc(=O)[nH]c3=O)[C@H](O)[C@@H]2O)[C@H](O)[C@@H](O)[C@@H]1O [UDP-GlcA] | both enzymes are able to catalyse the addition of a sixth sugar, forming GlcA-GlcNAc-TetraP-BETA | all four GTs but without FAM20B gave the unphosphorylated linker glycopeptide, GlcA-Gal-Gal-Xyl-BKN (Tetra-BKN) |  | 
CC(=O)N[C@H]1[C@@H](OP(=O)(O)OP(=O)(O)OC[C@H]2O[C@@H](n3ccc(=O)[nH]c3=O)[C@H](O)[C@@H]2O)O[C@H](CO)[C@H](O)[C@@H]1O [UDP-GalNAc] |  |  | A similar behaviour was confirmed for CSGALNACT1 | CHSY3/CHPF was able to transfer GalNAc onto TetraP-BETA
